Assay results: ChEMBL document CHEMBL3779887, “Robenidine Analogues as Gram-Positive Antibacterial Agents” (J Med Chem, 2016)
Values after ≈ are worked out from the molar mass of the structure shown.

What was measured:
Assay type in all cases: functional
Pseudomonas aeruginosa = assay: Antibacterial activity against Pseudomonas aeruginosa ATCC 27853 after 20 to 24 hrs
Staphylococcus aureus = assay: Antibacterial activity against methicillin-resistant Staphylococcus aureus after 20 to 24 hrs
Enterococcus = assay: Antibacterial activity against vancomycin-resistant Enterococcus after 20 to 24 hrs
Escherichia coli = assay: Antibacterial activity against Escherichia coli ATCC 25922 after 20 to 24 hrs

Compound | MIC (Pseudomonas aeruginosa) [µM] | MIC (Staphylococcus aureus) [µM] | MIC (Enterococcus) [µM] | MIC (Escherichia coli) [µM]
CN(C)c1ccc(/C=N/NC(=N)N/N=C/c2ccc(N(C)C)cc2)cc1 | > 400 | 30.9 (≈ 10.9 µg/mL) | 30.9 (≈ 10.9 µg/mL) | > 400
N=C(N/N=C/c1ccc(Br)cc1)N/N=C/c1ccc(Br)cc1 | > 400 | > 400 | > 400 | > 400
N=C(N/N=C/c1ccc(O)cc1)N/N=C/c1ccc(O)cc1 | > 400 | 192 (≈ 57.1 µg/mL) | 288 (≈ 85.6 µg/mL) | > 400
N=C(N/N=C/c1ccc(Cl)cc1O)N/N=C/c1ccc(Cl)cc1O | > 400 | 80 (≈ 29.3 µg/mL) | 45 (≈ 16.5 µg/mL) | > 400
CC(C)c1ccc(/C=N/NC(=N)N/N=C/c2ccc(C(C)C)cc2)cc1 | > 400 | 9.1 (≈ 3.18 µg/mL) | 13 (≈ 4.54 µg/mL) | > 400
N=C(N/N=C/c1ccc(O)c(O)c1)N/N=C/c1ccc(O)c(O)c1 | > 400 | > 400 | > 400 | > 400
N=C(N/N=C/c1ccc(-c2ccccc2)cc1)N/N=C/c1ccc(-c2ccccc2)cc1 | > 400 | 282 (≈ 118 µg/mL) | 106 (≈ 44.3 µg/mL) | > 400
COc1cccc(/C=N/NC(=N)N/N=C/c2cccc(OC)c2)c1 | > 400 | 88 (≈ 28.6 µg/mL) | 88 (≈ 28.6 µg/mL) | > 400
N=C(N/N=C/c1cccc(C(=O)O)c1)N/N=C/c1cccc(C(=O)O)c1 | > 400 | > 400 | > 400 | > 400
